Measured values: patent US11992488B2, “Vasoconstriction compositions and methods of use” (Eye Therapies, LLC, priority 2008, dated 2024)
Where two headings read alike, the source gives them in different places.

Key:
over-responders [1] = details: contact lenses soaked in 0.008% brimonidine, of 100 Subjects (over-responders)
From the text: Contact lenses are often provided as daily wear lenses stored in a blisterpack solution.

under-responders = details: of 100 Subjects (under-responders)
over-responders [2] = details: of 100 Subjects (over-responders)
[3] = test system: patient with an ocular condition of moderate hyperemia; test: FIGS. 5A-C: reversal of pre-induced rebound hyperemia; type: in vivo, human; details: brimonidine at […], right eye after VISINE Original, FIG. 5C
From the text: FIG. 5A is a baseline visual appearance of two eyes of a patient with an ocular condition.

[4] = test system: patients with chronic red eyes; test: Example 5: chronic red eyes, patient satisfaction assessment; type: in vivo, human; details: eld brimonidine at […], drops twice a day for three to five weeks, seven patients
Protocol: The treatment was through drops twice a day for three to five weeks. At the end, patient satisfaction assessment was conducted.

[5] = test system: over-responders wearing contact lenses; details: 0.008% brimonidine while wearing contact lenses, of 100 Subjects (over-responders)
From the text: Contact lenses provide a reservoir to the surface of the eye allowing drugs to remain longer on the eye and increase their effectiveness.

[6] = FIG. 2
[7] = test system: patient with an ocular condition; details: brimonidine at 0.01% to […] vs tetrahydrozoline 0.05%, oxymetazoline […], naphazoline […]; one patient, baseline redness 4/4
From the text: In an average clinical situation, baseline redness is at 1-1.5/4.

[8] = 0.037% brimonidine after wash-out

Structure (SMILES): Brc1c(N=C2NCCN2)ccc2nccnc12.O=C(O)C(O)C(O)C(=O)O [brimonidine, 5-bromo-6-(2-imidazolidinylideneamino) quinoxaline L-tartrate]
- Reduced Redness (over-responders [1]): 95
- Whitening (over-responders [1]): 95
- Reduced Redness (under-responders; [8]): 95
- Whitening (under-responders; [8]): 95
- Reduced Redness (under-responders; […] brimonidine): 35
- Whitening (under-responders; […] brimonidine): 35
- Reduced Redness (over-responders [2]; […] brimonidine after wash-out): 95
- Whitening (over-responders [2]; […] brimonidine after wash-out): 95
- Reduced Redness (over-responders [2]; […] brimonidine): 85
- Whitening (over-responders [2]; […] brimonidine): 85
- reversal of induced rebound hyperemia [3]: reversing the VISINE Original® induced rebound hyperemia
- patient-reported redness [4]: All patients reported reduced redness
- Reduced Redness [5]: 95
- Whitening [5]: 95
- concentration at which intraocular pressure reduction is at its maximum [6]: about 0.09%
- scleral whitening brightening effects [7]: significant scleral whitening brightening effects
